Experimental data as given in publication PMC7046148 (Scientific Reports, 2020).
“Also recorded” adds a separate entry of the source.

Columns and labels:
XCL-1 hiPSC SALL4^G416A = experiment: LPM differentiation assay (FOXF1 high content imaging), XCL-1 SALL4^G416A clone; settings: Homo sapiens, 48 h, read-out: IC50 (±SEM) in LPM differentiation assay
Description: (§1) hiPSCs (Gibco or XCL-1 clones) were grown in mTeSR-1 on Matrigel, passaged into small clumps with Versene (4.5 min under normal culture conditions), counted as a single-cell suspension as described above, and seeded as small clumps at approximately 10,000 cells/well (30,000 cells/cm^2, ~15% confluence) in 100 µL mTeSR1 on Matrigel-coated µClear® 96-well plates (Greiner) for 1 d under normal culture conditions. On the day after seeding, the medium was replaced with 100 µL/well of mTeSR-1 (control) or APEL2 + GSKi containing either DMSO or diluted compounds (for a final DMSO concentration of 0.2%). The same conditions were replenished the following day for a total of 2 d of differentiation, and the following day (3 d after seeding), the medium was aspirated, and hiPSCs were fixed in 10% NBF for 15 min at room temperature.
(§2) Immunofluorescence staining was carried out by fixing/permeabilizing cells overnight in blocking buffer containing 3% BSA (Sigma) in DPBS-T, which contains DPBS + Ca^2+//Mg^2+ with 0.3% Triton-X100 (Sigma). Fixed and permeabilized cells were incubated in primary antibodies diluted (as noted in Table 1) in antibody buffer, consisting of 1% BSA in DPBS-T, overnight at 4 °C.
(§3) Cells were washed in blocking buffer for >6 hours at 4 °C and subsequently incubated in secondary antibody diluted in antibody buffer overnight at 4 °C. Secondary antibodies were washed out in antibody buffer for >4 h at 4 °C, and hiPSCs were counterstained with DAPI (Fisher) at 10 µg/mL in DPBS-T for 2 h. hiPSCs were washed in DPBS-T for >2 h at 4 °C, and immediately before imaging, the DPBS-T was replaced with DPBS. […] Chemical dose-response experiments and experiments examining the time-course of marker expression during LPM differentiation were imaged at 10X magnification using the Cellomics ArrayScan or CellInsight Cx7 LZR High Content Screening Platform and HCS Studio Cell Analysis Software (Thermo Fisher). An artificial threshold was uniformly applied to all images to generate the percentage of DAPI+ nuclei that stained positively for FOXF1 or NANOG. Thresholding for FOXF1 and T was performed relative to undiffer-entiated hiPSCs, and thresholding for SALL4 and OCT4 was performed relative to a non-expressing cell type (human primary endothelial cells). Settings for image acquisition and processing were uniformly applied between XCL-1 clones. […] Experiments were repeated in quadruplicate unless otherwise stated, and data are presented as mean ± SEM. Nonlinear regression analysis was performed using the 4-parameter [inhibitor]-vs-response curve fitting algorithm in Prism (GraphPad).
In addition, XCL-1 hiPSCs were engineered with CRISPR/Cas9 to express a homozygous SALL4 G416A mutation (hereafter referred to as the SALL4^G416A clone), and the homozygous SALL4 G416A mutation was confirmed by next-generation sequencing (Supplementary Fig. 2).

XCL-1 hiPSC CRBN Mock = experiment: LPM differentiation assay (FOXF1 high content imaging), XCL-1 CRBN Mock clone; format: cell-based; settings: Homo sapiens, 48 h, % FOXF1+ cells after 2 d in APEL2+GSKi, read-out: IC50 (±SEM) in LPM differentiation assay
Description: On the day after seeding, the medium was replaced with 100 µL/well of mTeSR-1 (control) or APEL2 + GSKi containing either DMSO or diluted compounds (for a final DMSO concentration of 0.2%). The same conditions were replenished the following day for a total of 2 d of differentiation, and the following day (3 d after seeding), the medium was aspirated, and hiPSCs were fixed in 10% NBF for 15 min at room temperature.
as §2, §3

Gibco hiPSCs [1] = experiment: qRT-PCR of 3D fibrin cultures of hiPSCs during LPM differentiation; format: cell-based, human; settings: thalidomide 20 µM, atRA 3 µM, 2 d in APEL2+GSKi, fibrin 3D
Description: For 3D differentiation studies, Gibco hiPSCs were encapsulated in fibrin at 2–4 × 10^6 cells/mL. hiPSCs were passaged with Versene (as described above) and were suspended as small clumps in a solution composed of a 1:4:5:10 dilution of 200 mM CaCl2 in DI water, 50 U/mL human thrombin (Sigma) in 0.1% cell culture BSA in DI water, DPBS, and hiPSC suspension in mTeSR1. The hiPSC suspension was mixed by pipetting, and 0.5 µL droplets of suspended hiPSCs were plated at the bottom of each well of a round-bottom sterile polypropylene plate. hiPSC suspensions were subsequently diluted 5-fold by pipetting up and down in each well with 2 µL of 10 mg/mL human fibrinogen (Sigma) in DPBS (sterile filtered prior to use). Fibrin clot formation proceeded for 10 minutes at room temperature prior to addition of mTeSR-1 and incubation under normal culture conditions overnight. […] For chondrogenic differentiation experiments, cells were cultured in APEL2 + GSKi for the described duration, followed by culture in ACF MesenCult chondrogenic differentiation medium (Stem Cell Technologies) for 17–20 days under normal culture conditions. […]
(black bars). Data are presented as mean ± SEM of the log2 fold change calculated from each sample relative to the ACTB housekeeper control and the DMSO control (normalized via the 2-ΔΔCT method) from three independent experiments. […]

hiPSCs = experiment: Viability of hiPSCs in 3D culture (CellTiter Glo 3D); format: cell-based, human; settings: 20 µM thalidomide or 3 µM atRA, 2 d LPM differentiation in 3D fibrin
Description: Supplementary Figure 10. Normalized viability of hiPSCs differentiated to LPM for 2 days in 3D […]
µM atRA. Data represent replicate wells in a single experiment, n=6, of hiPSCs that were cultured in fibrin for 1 day in mTeSR1 followed by 2 days of culture in APEL2+GSKi in the presence of either 0.1% […]
differentiation, the medium was replaced with CellTiter Glo 3D reagent (diluted 1:1 in DPBS), and luminescence was measured on a plate reader.
Normalized luminescence is reported as mean +/- SD of 6 replicate wells per condition. No statistical differences was observed via one-way ANOVA and Dunnett’s post-hoc test (α=0.05).
(1 picture or pasted object on this page, not shown here)

XCL-1 hiPSC SALL4 Mock = experiment: LPM differentiation assay (FOXF1 high content imaging), XCL-1 SALL4 Mock clone; settings: Homo sapiens, 48 h, read-out: IC50 (±SEM) in LPM differentiation assay
Description: as §1, §2, §3

Gibco hiPSCs [2] = experiment: LPM differentiation assay (FOXF1 high content imaging), Gibco hiPSCs; settings: for IC50: Homo sapiens, 48 h, read-out: IC50 (±SEM) in LPM differentiation assay
Description: as §1, §2, §3

XCL-1 hiPSC CRBN KO/KI = experiment: LPM differentiation assay (FOXF1 high content imaging), XCL-1 CRBN KO/KI clone; format: cell-based, human; settings: for IC50: Homo sapiens, 48 h, XCL-1 CRBN KO/KI, % FOXF1+ cells after 2 d in APEL2+GSKi, read-out: IC50 (±SEM) in LPM differentiation assay
Description: On the day after seeding, the medium was replaced with 100 µL/well of mTeSR-1 (control) or APEL2 + GSKi containing either DMSO or diluted compounds (for a final DMSO concentration of 0.2%). The same conditions were replenished the following day for a total of 2 d of differentiation, and the following day (3 d after seeding), the medium was aspirated, and hiPSCs were fixed in 10% NBF for 15 min at room temperature. For time-course experiments, cells were fixed at the specified intervals after the start of LPM differentiation.
as §2
Cells were washed in blocking buffer for >6 hours at 4 °C and subsequently incubated in secondary antibody diluted in antibody buffer overnight at 4 °C. Secondary antibodies were washed out in antibody buffer for >4 h at 4 °C, and hiPSCs were counterstained with DAPI (Fisher) at 10 µg/mL in DPBS-T for 2 h. hiPSCs were washed in DPBS-T for >2 h at 4 °C, and immediately before imaging, the DPBS-T was replaced with DPBS. Initial characterization of LPM differentiation by immunofluorescence was carried out using the A1R confocal microscope (Nikon) equipped with 10X objective, and automated object analysis was carried out using NIS Elements v5 software (Nikon). Chemical dose-response experiments and experiments examining the time-course of marker expression during LPM differentiation were imaged at 10X magnification using the Cellomics ArrayScan or CellInsight Cx7 LZR High Content Screening Platform and HCS Studio Cell Analysis Software (Thermo Fisher). An artificial threshold was uniformly applied to all images to generate the percentage of DAPI+ nuclei that stained positively for FOXF1 or NANOG. Thresholding for FOXF1 and T was performed relative to undiffer-entiated hiPSCs, and thresholding for SALL4 and OCT4 was performed relative to a non-expressing cell type (human primary endothelial cells). Settings for image acquisition and processing were uniformly applied between XCL-1 clones. The capacity of all XCL-1 clones and Gibco hiPSCs to undergo LPM differentiation in the high content format was assessed by FOXF1 and NANOG immunostaining. […] Experiments were repeated in quadruplicate unless otherwise stated, and data are presented as mean ± SEM. Nonlinear regression analysis was performed using the 4-parameter [inhibitor]-vs-response curve fitting algorithm in Prism (GraphPad).
Using CRISPR/Cas9-mediated gene editing, both CRBN alleles were knocked out in XCL-1 hiPSCs cells, followed by the insertion at the AAVS1 locus of a transgene encoding human CRBN with E377V and V388I mutations (clone hereafter referred to as CRBN KO/KI).

SALL4 = target: T1, SALL4 (Homo sapiens, UniProt Q96SW2+Q9UJQ4); experiment: SALL4 nuclear protein expression (MFI) by high content imaging, Gibco hiPSCs; format: cell-based
T1 construct: Unmodified Gibco hiPSCs were either differentiated in APEL2 + GSKi or maintained in mTeSR1, and SALL4 nuclear protein expression was monitored; endogenous in cells; host or cells: Gibco hiPSCs; XCL-1 SALL4 mock hiPSC clone
T1 sequence (Q9UJQ4 whole entry): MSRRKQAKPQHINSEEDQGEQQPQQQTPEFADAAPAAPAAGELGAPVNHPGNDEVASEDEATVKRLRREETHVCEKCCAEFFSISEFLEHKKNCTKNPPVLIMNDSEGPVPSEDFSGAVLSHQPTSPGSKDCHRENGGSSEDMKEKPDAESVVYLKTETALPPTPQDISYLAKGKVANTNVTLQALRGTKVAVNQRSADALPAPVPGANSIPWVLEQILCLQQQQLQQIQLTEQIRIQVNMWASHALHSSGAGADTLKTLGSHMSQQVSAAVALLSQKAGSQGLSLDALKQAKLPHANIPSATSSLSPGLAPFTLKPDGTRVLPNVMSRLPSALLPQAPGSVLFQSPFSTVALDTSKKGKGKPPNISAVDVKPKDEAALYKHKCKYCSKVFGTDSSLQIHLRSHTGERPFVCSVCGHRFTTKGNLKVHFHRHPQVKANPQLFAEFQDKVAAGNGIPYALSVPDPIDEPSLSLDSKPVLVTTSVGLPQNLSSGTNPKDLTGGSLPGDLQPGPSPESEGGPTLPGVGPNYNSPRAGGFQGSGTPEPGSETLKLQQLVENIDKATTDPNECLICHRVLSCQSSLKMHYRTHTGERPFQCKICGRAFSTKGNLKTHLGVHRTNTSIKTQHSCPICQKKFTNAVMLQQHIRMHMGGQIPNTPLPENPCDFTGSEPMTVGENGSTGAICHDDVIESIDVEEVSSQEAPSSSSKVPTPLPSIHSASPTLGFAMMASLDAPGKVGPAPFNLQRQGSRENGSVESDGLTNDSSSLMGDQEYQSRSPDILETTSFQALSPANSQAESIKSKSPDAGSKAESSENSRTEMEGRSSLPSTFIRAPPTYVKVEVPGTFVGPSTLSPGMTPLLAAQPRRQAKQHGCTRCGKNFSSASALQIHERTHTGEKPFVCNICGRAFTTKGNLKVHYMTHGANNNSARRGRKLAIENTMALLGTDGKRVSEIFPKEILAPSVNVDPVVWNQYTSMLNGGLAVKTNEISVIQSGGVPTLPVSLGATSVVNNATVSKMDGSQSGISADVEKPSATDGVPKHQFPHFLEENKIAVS
T1 sequence (Q96SW2 whole entry): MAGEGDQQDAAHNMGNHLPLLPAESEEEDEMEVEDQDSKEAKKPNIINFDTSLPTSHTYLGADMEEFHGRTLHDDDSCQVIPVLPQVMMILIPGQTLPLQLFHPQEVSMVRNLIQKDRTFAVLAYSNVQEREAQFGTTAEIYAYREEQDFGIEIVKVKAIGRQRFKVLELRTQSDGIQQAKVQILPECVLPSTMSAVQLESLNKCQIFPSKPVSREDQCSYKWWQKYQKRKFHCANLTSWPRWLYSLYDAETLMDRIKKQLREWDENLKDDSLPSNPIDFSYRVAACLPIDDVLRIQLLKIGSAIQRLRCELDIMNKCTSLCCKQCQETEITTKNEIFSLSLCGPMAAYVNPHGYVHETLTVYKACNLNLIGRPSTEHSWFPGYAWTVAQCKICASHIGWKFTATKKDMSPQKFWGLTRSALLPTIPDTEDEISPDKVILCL
T1 sequence (Q16531 whole entry partner): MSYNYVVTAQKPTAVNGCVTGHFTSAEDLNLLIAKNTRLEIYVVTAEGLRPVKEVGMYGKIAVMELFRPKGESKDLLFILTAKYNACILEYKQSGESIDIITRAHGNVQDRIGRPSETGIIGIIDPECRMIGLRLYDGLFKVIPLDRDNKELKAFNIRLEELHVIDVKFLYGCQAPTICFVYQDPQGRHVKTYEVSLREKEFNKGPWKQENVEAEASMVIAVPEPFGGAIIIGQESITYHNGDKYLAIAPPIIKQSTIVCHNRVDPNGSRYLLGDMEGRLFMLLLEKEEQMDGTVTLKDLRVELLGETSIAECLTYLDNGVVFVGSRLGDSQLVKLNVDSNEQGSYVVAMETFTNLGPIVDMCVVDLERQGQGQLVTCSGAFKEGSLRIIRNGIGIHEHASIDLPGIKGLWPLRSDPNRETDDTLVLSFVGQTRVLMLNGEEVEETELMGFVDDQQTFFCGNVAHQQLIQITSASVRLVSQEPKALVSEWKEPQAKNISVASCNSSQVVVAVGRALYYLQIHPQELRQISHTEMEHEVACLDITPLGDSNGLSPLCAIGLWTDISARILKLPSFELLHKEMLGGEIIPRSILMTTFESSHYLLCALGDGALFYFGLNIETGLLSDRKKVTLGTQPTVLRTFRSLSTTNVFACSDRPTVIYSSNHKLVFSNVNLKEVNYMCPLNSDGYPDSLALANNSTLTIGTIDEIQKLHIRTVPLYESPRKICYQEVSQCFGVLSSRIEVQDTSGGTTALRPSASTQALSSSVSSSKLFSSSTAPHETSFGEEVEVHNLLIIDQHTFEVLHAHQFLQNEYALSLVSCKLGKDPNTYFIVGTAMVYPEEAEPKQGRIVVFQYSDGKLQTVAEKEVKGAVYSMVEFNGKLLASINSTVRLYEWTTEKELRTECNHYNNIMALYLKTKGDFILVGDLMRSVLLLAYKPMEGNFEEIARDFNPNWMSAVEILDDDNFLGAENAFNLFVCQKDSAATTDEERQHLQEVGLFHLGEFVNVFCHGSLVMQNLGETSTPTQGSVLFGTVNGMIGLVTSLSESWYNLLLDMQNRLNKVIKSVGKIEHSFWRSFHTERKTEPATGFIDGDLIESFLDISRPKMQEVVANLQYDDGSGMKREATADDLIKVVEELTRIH
Description: High content imaging analysis of SALL4 immunofluorescence with DAPI counterstaining in hiPSCs. […] Data represent the mean +/− SEM from 2 independent experiments.

| Structure (SMILES) | IC50 (XCL-1 hiPSC SALL4^G416A) | IC50 (XCL-1 hiPSC CRBN Mock) | effect on marker gene expression in 3D LPM differentiation (Gibco hiPSCs [1]) | normalized viability (CellTiter Glo 3D) versus DMSO (hiPSCs) | IC50 (XCL-1 hiPSC SALL4 Mock) | IC50 (Gibco hiPSCs [2]) | reduction of %FOXF1+ cells via high content imaging (Gibco hiPSCs [2]; thalidomide at 20 µM, atRA at 3 µM, during LPM differentiation) | inhibition of LPM differentiation at the highest concentration tested (XCL-1 hiPSC CRBN KO/KI; 50 µM, CRBN KO/KI clone) | IC50 (XCL-1 hiPSC CRBN KO/KI) | time-course of SALL4 MFI (SALL4; 20 µM, Gibco hiPSCs in mTeSR1 or APEL2+GSKi, 2, 8 and 24 h after dosing) | effect on SALL4 MFI (SALL4; Gibco hiPSCs, 8 h of treatment, dose-response) |
| --- | --- | --- | --- | --- | --- | --- | --- | --- | --- | --- | --- |
| O=C1CCC(N2C(=O)c3ccccc3C2=O)C(=O)N1 (stereo not drawn) [Thalidomide, thalidomide] | > 50000 nM | 560 ± 450 nM | reduced FOXF1 and KDR expression | No statistical differences | 690 ± 500 nM | 310 ± 190 nM | 30% | inhibited LPM differentiation albeit not to the same magnitude as control hiPSCs | > 50000 nM | rapid decline in SALL4 MFI 2 h after dosing |  |
| CC1=C(/C=C/C(C)=C/C=C/C(C)=C/C(=O)O)C(C)(C)CCC1 [atRA, all-trans retinoic acid] | 9100 ± 5900 nM | 2700 ± 2000 nM | reduced FOXF1 and KDR expression; also recorded: reduced the expression of TBXT and GATA4 | No statistical differences | 2940 ± 1200 nM | 820 ± 780 nM |  |  | 8170 ± 5100 nM |  | did not reduce SALL4 MFI |
